Source: patent US10538498B2, “1,3,4-oxadiazole sulfonamide derivative compounds as histone deacetylase 6 inhibitor, and the pharmaceutical composition comprising the same” (Chong Kun Dang Pharmaceutical Corp., priority 2015, dated 2020)

Target: T1, human recombinant HDAC6 (Homo sapiens, UniProt Q9UBN7)
T1 construct: purchased Calbiochem 382180
T1 sequence (Q9UBN7 1-1215): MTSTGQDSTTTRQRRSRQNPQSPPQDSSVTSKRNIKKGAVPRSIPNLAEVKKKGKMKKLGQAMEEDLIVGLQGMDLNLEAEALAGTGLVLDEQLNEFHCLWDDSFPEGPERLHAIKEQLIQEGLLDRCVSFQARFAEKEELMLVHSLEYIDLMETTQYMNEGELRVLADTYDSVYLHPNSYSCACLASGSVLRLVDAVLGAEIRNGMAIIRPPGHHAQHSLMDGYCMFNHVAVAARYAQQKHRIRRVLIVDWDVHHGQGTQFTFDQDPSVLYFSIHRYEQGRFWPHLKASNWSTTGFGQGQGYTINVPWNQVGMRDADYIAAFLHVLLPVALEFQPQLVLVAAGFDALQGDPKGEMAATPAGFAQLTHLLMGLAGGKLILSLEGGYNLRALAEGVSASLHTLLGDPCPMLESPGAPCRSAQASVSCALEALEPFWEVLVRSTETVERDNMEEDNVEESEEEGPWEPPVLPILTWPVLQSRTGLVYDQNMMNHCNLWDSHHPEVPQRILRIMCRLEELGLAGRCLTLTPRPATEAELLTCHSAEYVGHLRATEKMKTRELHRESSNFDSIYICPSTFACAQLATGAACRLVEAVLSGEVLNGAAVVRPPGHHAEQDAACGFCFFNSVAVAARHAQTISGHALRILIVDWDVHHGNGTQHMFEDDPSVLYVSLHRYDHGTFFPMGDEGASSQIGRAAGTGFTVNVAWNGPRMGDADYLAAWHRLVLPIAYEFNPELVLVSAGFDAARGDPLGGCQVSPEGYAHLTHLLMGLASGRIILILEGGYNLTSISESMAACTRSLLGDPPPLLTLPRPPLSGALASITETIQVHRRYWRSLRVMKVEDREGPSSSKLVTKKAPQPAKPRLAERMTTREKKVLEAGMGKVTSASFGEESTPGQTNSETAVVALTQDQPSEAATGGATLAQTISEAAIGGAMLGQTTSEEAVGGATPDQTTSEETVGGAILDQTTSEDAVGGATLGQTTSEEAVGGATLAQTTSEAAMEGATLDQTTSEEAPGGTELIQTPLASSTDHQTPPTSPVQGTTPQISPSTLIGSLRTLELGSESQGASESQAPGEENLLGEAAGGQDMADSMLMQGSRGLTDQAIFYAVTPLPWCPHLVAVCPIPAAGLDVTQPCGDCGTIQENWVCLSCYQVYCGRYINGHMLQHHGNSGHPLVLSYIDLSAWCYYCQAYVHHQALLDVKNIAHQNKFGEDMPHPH
Experiment: HDAC6 enzyme activity inhibition assay (HDAC Fluorimetric Drug Discovery Kit)
Assay type: biochemical
Conditions: for HDAC6 selectivity (fold): HDAC1 vs HDAC6; for IC50: same protocol as the HDAC1 enzyme activity test
How it was run: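 IC50s derived from fluorescence (Ex 360, Em 460) read after a 30-min developer step. Beforehand, compounds in 5-fold dilution series reacted 60 min at 30° C with 0.3 μg human recombinant enzyme and 10 μM Fluor de Lys-SIRT1 substrate.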

Row | Structure (SMILES) | HDAC6 selectivity (fold) | IC50 [nM]
1 | O=S(=O)(CCN1CCC(F)(F)C1)N(Cc1ccc(-c2nnc(C(F)F)o2)cc1)c1ccccc1 [Compound 11815, N-(4-(5-(difluoromethyl)-1,3,4-oxadiazol-2-yl)benzyl)-2-(3,3-difluoropyrrolidin-1-yl)-N-phenylethane-1-sulfonamide] | 1326 | 75.4
2 | O=S(=O)(CCN1CCC[C@H](O)C1)N(Cc1ccc(-c2nnc(C(F)F)o2)cc1)c1ccccc1 [Compound 11817, (S)—N-(4-(5-(difluoromethyl)-1,3,4-oxadiazol-2-yl)benzyl)-2-(3-hydroxypiperidin-1-yl)-N-phenylethane-1-sulfonamide] | 1718 | 58.2
3 | N#CC1CCN(CCS(=O)(=O)N(Cc2ccc(-c3nnc(C(F)F)o3)cc2)c2ccccc2)CC1 [Compound 11818, 2-(4-cyanopiperidin-1-yl)-N-(4-(5-(difluoromethyl)-1,3,4-oxadiazol-2-yl)benzyl)-N-phenylethane-1-sulfonamide] | 1647 | 60.7
4 | COC(=O)C1CN(CCS(=O)(=O)N(Cc2ccc(-c3nnc(C(F)F)o3)cc2)c2ccccc2)C1 [Compound 11820, methyl 1-(2-(N-(4-(5-(difluoromethyl)-1,3,4-oxadiazol-2-yl)benzyl)-N-phenylsulfamoyl)ethyl)azetidine-3-carboxylate] | 1652 | 60.5
5 | O=S(=O)(CCN1CC(F)(F)C1)N(Cc1ccc(-c2nnc(C(F)F)o2)cc1)c1ccccc1 [Compound 11821, 2-(3,3-difluoroazetidin-1-yl)-N-(4-(5-(difluoromethyl)-1,3,4-oxadiazol-2-yl)benzyl)-N-phenylethane-1-sulfonamide] | 747 | 134
6 | O=S(=O)(CCN1CCC(O)CC1)N(Cc1ccc(-c2nnc(C(F)F)o2)cc1)c1ccccc1 [Compound 11822, N-(4-(5-(difluoromethyl)-1,3,4-oxadiazol-2-yl)benzyl)-2-(4-hydroxypiperidin-1-yl)-N-phenylethane-1-sulfonamide] | 1365 | 73.3
7 | O=C(CO)N1CC(N2CCC(S(=O)(=O)N(Cc3ccc(-c4nnc(C(F)F)o4)cc3)c3cccc(Cl)c3)CC2)C1 [Compound 11836, N-(3-chlorophenyl)-N-(4-(5-(difluoromethyl)-1,3,4-oxadiazol-2-yl)benzyl)-1-(1-(2-hydroxyacetyl)azetidin-3-yl)piperidine-4-sulfonamide] | 3147 | 31.8

The remaining compounds from weak to strong by IC50, led by results:

Row | HDAC6 selectivity (fold) | IC50 [nM] | Structure (SMILES)
8 | 88 | 1130 | CC(C)(C)OC(=O)N1CC2(CCN(CCS(=O)(=O)N(Cc3ccc(-c4nnc(C(F)F)o4)cc3)c3ccccc3)CC2)C1 [Compound 11814, tert-butyl 7-(2-(N-(4-(5-(difluoromethyl)-1,3,4-oxadiazol-2-yl)benzyl)-N-phenylsulfamoyl)ethyl)-2,7-diazaspiro[3.5]nonane-2-carboxylate]
9 | 284 | 351 | O=S(=O)(CCN1CCC(c2ccc(F)cc2)CC1)N(Cc1ccc(-c2nnc(C(F)F)o2)cc1)c1ccccc1 [Compound 11819, N-(4-(5-(difluoromethyl)-1,3,4-oxadiazol-2-yl)benzyl)-2-(4-(4-fluorophenyl)piperidin-1-yl)-N-phenylethane-1-sulfonamide]
10 | 2695 | 37.1 | O=S(=O)(CCn1ccnc1)N(Cc1ccc(-c2nnc(C(F)F)o2)cc1)c1ccccc1 [Compound 11816, N-(4-(5-(difluoromethyl)-1,3,4-oxadiazol-2-yl)benzyl)-2-(1H-imidazol-1-yl)-N-phenylethane-1-sulfonamide]
11 | 2932 | 34.1 | NC(=O)[C@H]1CCCN1CCS(=O)(=O)N(Cc1ccc(-c2nnc(C(F)F)o2)cc1)c1ccccc1 [Compound 11813, (R)-1-(2-(N-(4-(5-(difluoromethyl)-1,3,4-oxadiazol-2-yl)benzyl)-N-phenylsulfamoyl)ethyl)pyrrolidine-2-carboxamide]
